In the assay the test system is CSM14.1 cells, thapsigargin, p-p38/p38 MSD immunoassay. Kind of assay: p-p38/p38 reduction after thapsigargin stress – cell lysate, CSM14.1 cells, immunoblotting, mechanism study for ER stress cell death project, dose response (AID 1387). The note with it: at 10 µM (top of the series). (In western blotting, separated proteins are transferred to a membrane and probed.)

Structures are written as SMILES.

On to `COc1ccc(C2CC(=O)C3=C(C2)Nc2ccccc2NC3c2cccc(Oc3ccccc3)c2)cc1OC` (stereo unspecified), for which the relative p-p38/p38 ratio, lower = inhibition is 0.

For the origin of these results see PubChem BioAssay AID1387 (Sanford-Burnham Center for Chemical Genomics, 2008).
